Reference: ChEMBL document CHEMBL5543100 (Eur J Med Chem, 2024)

Test system: OS-RC-2
Assay: cells
Details: Homo sapiens, OS-RC-2, 48 h
Description: Antiproliferative activity against human OS-RC-2 cells assessed as inhibition of cell growth incubated for 48 hrs

IC50: ~9 µM
SMILES: CNC(=O)c1cc(Oc2ccc(NC(=O)Nc3ccc(Cl)c(C(F)(F)F)c3)cc2)ccn1 [SORAFENIB]
